Measured values as given in US20250304973A1, “HIGH-AFFINITY THROMBIN APTAMERS AND METHODS OF USE” (Ayass Bioscience LLC, priority 2024, published 2025).
Entries after “also recorded” stand apart in the source; their conditions may differ.

Experiments:
[1] = system: human citrated plasma; assay: Activated partial thromboplastin time (APTT) assay in human citrated plasma; type: biochemical; conditions: 2 uM, 2 h, versus untreated control
Procedure: 137. Sterile human blood in sodium citrate was purchased from the Rockland Immuno- chemicals, Inc (cat #R214-0050, Pottstown, PA 19464, USA). Plasma was prepared by centrifugation for 10 min at 2000×g. In vitro activity assays were performed on ACLTOP analyzer manufactured by Instrumentation Laboratory, which is a type of coagulation analyzer commonly used in clinical laboratories to measure clotting times and assess coagulation parameters. The ACLTOP analyzer is designed to perform a wide range of coagulation tests, including Factor II activity, prothrombin time (PT), activated partial thromboplastin time (APTT), fibrinogen, and other related assays. ACLTOP analyzer uses HemosIL reagents developed by Instrumentation Laboratory company (Bedford, MA, USA) to perform coagulation tests.
140. […] APTT time was measured using the synthetic phospholipid reagent SynthASIil for quantitative determination in human citrated plasma on an ACLTOP coagulation analyzer manufactured by Instrumentation Laboratory (Bed- ford, MA, USA).
146. Modified aptamers chemically crosslinked with TAG, PEG, and cholesterol entities at the 3′ end, were purchased from IDT (Integrated DNA Technologies, Coralville, IA, USA). The impact of modified AYA1809002 and AYA1809004 aptamers on Factor II activity, PT, and APTT was evaluated using the same protocol as was used for the unmodified aptamers. Additionally, the potential for reversal was investigated using the respective reverse complement for each aptamer.

[2] = biological target: T1, human alpha-thrombin protein (Homo sapiens, UniProt P00734); assay: ELISA-based binding assay of biotinylated thrombin aptamers to thrombin protein; conditions: for Kd: ELISA-based competition assay, 5′ biotin aptamer with or without 100-fold excess non-biotinylated aptamer, estimated, read-out: binding affinity to thrombin, dissociation constant (Kd); for binding to immobilized human thrombin (absorbance at 450 nm): top nine enriched aptamers, biotinylated, FIG. 2A
T1 construct: Native human alpha-thrombin protein; purchased ThermoFisher Scientific RP-43100; host or cells: native protein
Procedure: 135. Native human alpha-thrombin protein (ThermoFisher Scientific, cat #RP-43100, Waltham, MA, USA) was added to each well of a 96-well plate (Nunc MaxiSorp flat-bottom 96-well plates, ThermoFisher Scientific, cat #44-2404-21, Waltham, MA, USA) at a concentration of 250 nM in Tris-buffered saline with a volume of 100 μL per well. The plate was then incubated at 4° C. for 16 h to allow the wells to become coated with thrombin. After removing the thrombin solution, the wells were washed and blocked using blocking buffer (20 mM Tris, 150 mM NaCl pH 7.5, 2% BSA, 0.1% Tween 20 and 100 μg/mL of sheared salmon sperm DNA) for a 1 h duration. Next, biotinylated aptamers at the indicated concentrations in a volume of 100 μL were added to the wells in an incubation buffer (20 mM Tris, 150 mM NaCl pH 7.5, 0.1% BSA, 0.1% Tween 20 and 100 μg/mL of sheared salmon sperm DNA) and incubated for 1 h at room temperature. In the competition binding assay, unlabeled aptamers were added along with the biotinylated aptamers, with the unlabeled aptamers being present in a 100-fold excess compared to the biotinylated aptamers. Following three washing steps with wash buffer (20 mM Tris, 150 mM NaCl pH 7.5, 0.1% BSA and 0.1% Tween 20), streptavidin-HRP (ThermoFisher Scientific, cat #21130, Waltham, MA, USA) was added at a dilution of 1:5000 in the incubation buffer. The plate was washed again three times to remove any unbound reagents. The bound biotinylated aptamers were then detected using 3,3′,5,5′-Tetramethylbenzidine (TMB) substrate (ThermoFisher Scientific, cat #34021, Waltham, MA, USA) following the manufacturer's instructions.

[3] = biological target: T2, Factor II activity (Homo sapiens, UniProt P00734); assay: Dose-dependent Factor II activity in whole blood; type: biochemical; conditions: 1, 2, 3, 4 uM; 2 h room temperature; citrated whole human blood
T2 construct: tissue Rockland Immunochemicals, Inc R214-0050; host or cells: human citrated plasma / whole blood
Procedure: 138. […] Factor II activity was measured using human plasma immunodepleted of Factor II for the quantitative determination of Factor II activity in citrated plasma based on the prothrombin time (PT) assay, for which an ACLTOP coagulation analyzer manufactured by Instrumentation Laboratory (Bedford, MA, USA) was used. To evaluate the dose-dependent activity of the aptamers in whole blood, human blood samples were collected in citrate-treated tubes. Subsequently, the blood samples were incubated at room temperature for 2 h in both the absence and presence of various concentrations of thrombin aptamers. To measure the Factor II activity using the ACLTOP coagulation analyzer, plasma was separated from the cells by centrifugation at 1500×g for 10 min at 4° C. For the dose-dependent study, concentrations of 1 uM, 2 uM, 3 uM, and 4 uM of AYA1809002 and AYA1809004 were utilized.
156. To facilitate future applications, gaining a comprehensive understanding of the activity of aptamers in whole blood is of paramount importance. To assess their effectiveness, we tested the selected aptamers at various concentrations in whole blood to evaluate their impact on Factor II activity and PT time. Human blood samples were collected in citrate- treated tubes. The blood samples were then incubated at room temperature for 2 h in the absence or presence of varying concentrations of thrombin aptamers. […]

[4] = system: human peripheral blood mononuclear cells (hPBMCs); assay: Immunogenic reaction on human PBMCs (LEGENDplex Human Inflammation Panel); type: cell-based; conditions: for immune stimulation (secretion of inflammatory cytokines and chemokines): 1, 5, 10 uM aptamer, 24 and 72 h, versus mock or control aptamer
Procedure: 147. Human PBMCs were isolated from buffy coats provided by Carter BloodCare(Bedford, TX, USA). Isolation was carried out through density-gradient centrifugation utilizing FicollPaque Plus from GE Healthcare. The isolated human PBMCs suspended in cRPMI media were subjected to stimulation with or without the AYA1809002 and AYA1809004 aptamers and a control aptamer. Various concentrations (1, 5, and 10 uM) of these aptamers were used, along with positive control stimuli such as LPS (200 ng/mL), ODN 1826 (20 uM, Invitrogen), or a combination of LPS (100 ng/mL) and ODN 1826 (10 uM). Following incubation periods of 24 and 72 h, the cell supernatant was collected via centrifugation at 200 g for 3 min. Cytokine levels were evaluated using the LEGENDplex Human Inflammation Panel 1 from BioLegend (cat #740808, San Diego, CA, USA) following the manufacturer's protocol, soluble analytes were acquired using a Navios EX flow cytometer (Beckman Coulter Inc, Pasadena, CA USA), and subsequent analysis was performed using BioLegend's LEGENDPLEX™ system(San Diego, CA, USA).

Substance	increase in APTT time [1]	Kd [2]	binding to immobilized human thrombin (absorbance at 450 nm) [2]	effect on Factor II activity in whole blood [3]	immune stimulation (secretion of inflammatory cytokines and chemokines) [4]	Safety: immunogenicity and side effects ([4]; Table 3)
AYA1809004: ssDNA thrombin aptamer TCGTCAAGGTACGGTTGGGGGGGTGGGTGTTGACGTTGAA (DNA, backbone not given here)	approximate four-fold increase	13 nM	strong binding capabilities	dose-dependent decrease in Factor II activity	do not exhibit immune-stimulating properties	–
AYA1809002: ssDNA thrombin aptamer GCGGTGTTGCTGGGGTTGGGAGGTTGGAGGAAGCAATCGC	approximate four-fold increase	10 nM	strong binding capabilities	dose-dependent decrease in Factor II activity	do not exhibit immune-stimulating properties; also recorded: did not exhibit immune-stimulating properties	Low immunogenicity
